Read-outs that look alike come from different tables or passages of the source.
Molecular target: P. fluorescens HPPD (Pseudomonas fluorescens, UniProt A0ACG8AE61)
Test: Dissociation of enzyme/inhibitor complexes by exchange with 14C-labelled inhibitor (koff; Kd = koff/kon)
Type: binding
Source text: Herbicidal inhibitors of HPPD are found here to have generally low values of koff (in the range less than 0.0003 s^−1, often less than 0.000001 s^−1). It will be appreciated that many suitable methods known in the art for determining such low koff values are suitable for working the current invention. These include measuring rates of exchange of radio or otherwise labelled inhibitors either with or away from the enzyme inhibitor complex. For example enzyme inhibitor complexes can readily be prepared by incubating HPPD preparations with labelled or unlabelled inhibitor and then, after suitable periods, optionally rapidly separating the thus formed enzyme inhibitor complex from excess inhibitor by any suitable method such as ultrafiltration, binding to filters or exchange down a gel filtration column. Exchange reactions with the, thus prepared enzyme inhibitor complex is then initiated by addition of, as appropriate, excess labelled or unlabelled inhibitor. HPPD preparations suitable for use in the methods of the current invention are relatively unpurified, buffer-exchanged, supernatant fractions of spun crude lysates of E. coli strains engineered to express the HPPD enzyme of interest at a level of, typically, about 0.25-10% of the total soluble protein. Many methods such as radiometric, fluorimetric, NMR, fluorescence depolarisation, EPR, Mossbauer, UV/VIS spectrophotometry etc. or phonon resonance can, in principle, be used to monitor the enzyme/ligand exchange reactions and, particularly in this case where the enzyme contains an iron atom at the ligand binding site. Optionally, the monitoring method may be continuous (as, for example, with scintillation proximity/bead-based methods) or, discontinuous, based upon collection of data at various timepoints wherein samples are removed and the bound and unbound label components rapidly separated and quantitated.
Values of koff can suitably be calculated by computer fitting based upon is numerical integration of the exchange data along with information on the active-site concentration of HPPD and upon kon values obtained as described below. […] In any event, koff values are always here calculated from the rate of the major slow exchange reaction. It will be appreciated that within the scope of the current invention many methods of making the desired kinetic comparisons are possible without explicit or rigorous determination of off rates but, based upon the same underlying principle, will achieve the same selection result. […]
Not all test inhibitors are readily available in a radiolabelled form. A more general method of measuring off rates is to first form the complex with unlabelled test inhibitor, to rapidly exchange the complex free of excess unlabelled inhibitor and to then start the exchange reaction by addition of an excess of a standard labelled inhibitor, the kinetic properties of which are already known. The reaction is then monitored and the relative proportions of bound and unbound label determined at various times. […] The latter is the method of choice when the rate of exchange is fast (t½<3 h).
In, variants of the above methods, off rates are measured either in the presence or absence of ˜25% v/v glycerol. In the presence of glycerol values obtained are generally ˜1.5-3× slower than in its absence although sometimes the change is outside this range or, even, in the other direction. Further examples of data obtained are depicted in the following Table 3.
Crude Extracts of recombinant E. coli strains expressing, in the one case, a control HPPD (from Arabidopsis) and, in the other, one or more test HPPD sequences are prepared as described in the preceding example. The titre of active sites and enzyme activity are also defined and measured as described in the preceding examples. […]

Chain of P. fluorescens HPPD (A0ACG8AE61 entry or part of it): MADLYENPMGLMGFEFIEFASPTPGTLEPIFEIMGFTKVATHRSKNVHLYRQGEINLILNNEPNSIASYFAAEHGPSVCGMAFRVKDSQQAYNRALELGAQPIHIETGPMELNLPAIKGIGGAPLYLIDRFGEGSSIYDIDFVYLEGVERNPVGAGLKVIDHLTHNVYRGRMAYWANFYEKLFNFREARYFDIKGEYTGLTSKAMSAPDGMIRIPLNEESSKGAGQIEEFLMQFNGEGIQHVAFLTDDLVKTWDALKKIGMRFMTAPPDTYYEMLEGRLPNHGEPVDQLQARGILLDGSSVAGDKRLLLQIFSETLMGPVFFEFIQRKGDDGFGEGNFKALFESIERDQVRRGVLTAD

Compound	Kd (Kd, value obtained + glycerol (in parentheses)) [pM]	Kd (Kd, without glycerol, Kd = koff/kon) [pM]	Kd (without glycerol, Kd = koff/kon, read-out: Kd) [pM]	koff (− glycerol) [s⁻¹]
CS(=O)(=O)c1ccc(C(=O)C2C(=O)CCCC2=O)c([N+](=O)[O-])c1 [Structure I, 2-(Nitro-4-methanesulphonylbenzoyl)-cyclohexane-1,3-dione, reference compound]	200	114		
Cc1nc(C(F)(F)F)ccc1C(=O)C1C(=O)C2CCC(C2)C1=O (stereo not shown) [Structure II]			2170	5e-05

Source: patent publication US20090172831A1, “Methods for the production of plants resistant to HPPD herbicides” (Syngenta Limited, priority 2000, published 2009)
